# Test results from patent publication US11371055B2, “Herbicide resistance genes” (CORTEVA AGRISCIENCE LLC, priority 2005, dated 2022).
# How the values were obtained:
# [1] = tested on: AAD-12 (v1) transformed T1 corn plants; test: Brace root injury of T1 corn after 2,4-D DMA; assay type: in vivo, Zea mays; settings: 2240 g ae/ha 2,4-D DMA, V3-V4 stage, 14DAT
# Excerpt: T1 AAD-12 (v1) seed were planted into 3-inch pots containing Metro Mix media and at 2 leaf stage were sprayed with 70 g ae/ha imazethapyr to eliminate nulls. Surviving plants were transplanted to 1-gallon pots containing Metro Mix media and placed in the same growth conditions as before. At V3-V4 stage the plants were sprayed in the track sprayer set to 187 L/ha at either 560 or 2240 g ac/ha 2,4-D DMA. Plants were graded at 3 and 14 DAT and compared to 5XH751×Hi II control plants. A grading scale of 0-10 (no injury to extreme auxin injury) was developed to distinguish brace root injury. Brace Root grades were taken on 14DAT to show 2,4-D tolerance. 2,4-D causes brace root malformation, and is a consistent indicator of auxinic herbicide injury in corn. […] Event “pDAB4101(0)001.001” was apparently unstable; however, the other two events were robustly tolerant to 2,4-D and 2,4-D+imazethapyr or 2,-4D+glyphosate (see Table 16).
# [2] = tested on: F1 stack of AAD-12 (v1) (pDAB4101) and BE1146RR corn; test: Herbicide tolerance of F1 stack AAD-12 (v1) x BE1146RR corn; assay type: in vivo, Zea mays; settings: 1120 g ae/ha 2,4-D DMA
# Excerpt: AAD-12 (v1) (pDAB4101) and elite Roundup Ready inbred (BE1146RR) were reciprocally crossed and F1 seed was collected. The seed from two F1 lines were planted and treated with 70 g ae/ha imazethapyr at the V2 stage to eliminate nulls. To the surviving plants, reps were separated and either treated with 1120 g ae/ha 2,4-D DMA+70 g ae/ha imazethapyr (to confirm presence of AHAS gene) or 1120 g ae/ha 2,4-D DMA+1680 g ae/ha glyphosate (to confirm the presence of the Round Up Ready gene) in a track sprayer calibrated to 187 L/ha. Plants were graded 3 and 16 DAT.
# [3] = tested on: R-dichlorprop habituated PHL (Petite Havana) tobacco cells; test: 2,4-D dose response of tobacco cell suspension (PHL); assay type: cell-based
# Method: A dose response study was conducted with both the R-dichlorprop habituated PHL cells and the R-dichlorprop habituated BY2 cells where R-dichlorprop was substituted directly for 2,4-D in culture media. Though the focus was on PHL, a dose response was also done with BY2 in case of possible future studies, as well as to help predict the dose response for PHL. For the dichlorprop habituated PHL dose response, the levels of 2,4-D used (on LSBY2C medium with R-dichlorprop) were 0 (the control), 1, 2, 3, 5, 8, 10, 12, 15, 18, 20, 40, 60, 80, […] mg/L 2,4-D. There were four replications per concentration. For the R-dichlorprop habituated BY2 dose response, the levels of 2,4-D used (on LSBY2C medium) were 0 (the control), 1, 2, 3, 5, 8, 10, 20, 30, 40, mg/L 2,4-D.
# [4] = tested on: AAD-12 (v1) transformed T0 tobacco events (pDAS1580); test: Postemergence herbicide tolerance in T0 tobacco; assay type: in vivo, Nicotiana tabacum; settings: 560 g ae/ha fluroxypyr
# Excerpt: T0 plants from each of the 19 events were challenged with a wide range of 2,4-D, triclopyr, or fluroxypyr sprayed on plants that were 3-4 inches tall. Spray applications were made as previously described using a track sprayer at a spray volume of 187 L/ha. 2,4-D dimethylamine salt (Riverside Corp) was applied at 0, 140, 560, or 2240 g ae/ha to representative clones from each event mixed in deionized water. Fluroxypyr was likewise applied at 35, 140, or 560 g ac/ha. Triclopyr was applied at 70, 280, or 1120 g ae/ha. Each treatment was replicated 1-3 times. Injury ratings were recorded 3 and 14 DAT. Every event tested was more tolerant to 2,4-D than the untransformed control line KY160. In several events, some initial auxinic herbicide-related epinasty occurred at doses of 560 g ae/ha 2,4-D or less. Some events were uninjured at 2,4-D applied at 2240 g ac/ha (equivalent to 4× field rate). On the whole, AAD-12 (v1) events were more sensitive to fluroxypyr, followed by triclopyr, and least affected by 2,4-D. The quality of the events with respect to magnitude of resistance was discerned using T0 plant responses to 560 g ae/ha fluroxypyr. Events were categorized into “low” (>40% injury 14 DAT), “medium” (20-40% injury), “high” (<20% injury). Some events were inconsistent in response among replicates and were deemed “variable.”
# AAD-12 (v2) = biological target: T1, AAD-12 (v2) (Delftia acidovorans, UniProt P83309); test: Chloropyridinol detection assay (absorbance at 325 nm); assay type: biochemical
# T1 construct: made in house; host or cells: Pseudomonas fluorescens strain MB324 (construct pDAB739)
# Excerpt: AAD-12 action on potential substrates such as the herbicide triclopyr containing a substituted pyridine (rather than benzene rings) will release a pyridinol on cleavage of the aryloxyalkanoate bond. Pyridinols were not detected using the aminoantipyrine/ferricyanide phenol detection described in the preceding section. […] This was used to create a continuous microplate-based spectrophotometric assay.
# All five pyridyloxyalkanoates were cleaved to release pyridinols by AAD-12 (v2). The rates for the oxypropionate substrates 116844 and 91767 were somewhat faster than those for the corresponding acetates (triclopyr and 93833 respectively) indicating a preference of AAD-12 (v2) for oxypropionate over oxyacetate side chains.
# [5] = LSBY2C medium with R-dichlorprop
# T1 sequence (P83309 whole entry, looked up, natural form): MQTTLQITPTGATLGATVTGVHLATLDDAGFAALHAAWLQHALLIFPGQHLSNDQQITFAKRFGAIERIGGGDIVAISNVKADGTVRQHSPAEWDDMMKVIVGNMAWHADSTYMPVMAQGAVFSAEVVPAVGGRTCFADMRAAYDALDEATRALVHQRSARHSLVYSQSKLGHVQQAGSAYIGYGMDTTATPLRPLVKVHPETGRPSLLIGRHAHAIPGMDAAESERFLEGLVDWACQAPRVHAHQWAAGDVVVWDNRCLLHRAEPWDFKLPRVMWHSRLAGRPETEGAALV
smiles,measurement,setting,value
"CNC.O=C(O)COc1ccc(Cl)cc1Cl [2,4-D DMA]",Average Brace Root Injury (0-10 Scale),[1]; event AAD-12 (v1) pDAB4101(0)005.001,0
same,Average Brace Root Injury (0-10 Scale),[1]; event AAD-12 (v1) pDAB41011(0)003.003,1
same,Average Brace Root Injury (0-10 Scale),[1]; event AAD-12 (v1)pDAB4101(0)001.001,8
same,Average % Injury 16DAT,[2]; AAD-12 (v1) pDAB4101(0)003.R003.AF,0%
same,Average % Injury 16DAT,[2]; AAD-12 (v1) pDAB4101(0)005.R001.AF,0%
"O=C(O)COc1ccc(Cl)cc1Cl [2,4-D, 2,4-dichlorophenoxyacetic acid]",growth of PHL suspension,"[3]; 10-mg/L 2,4-D",slight growth
same,"2,4-D concentrations with growth comparable to control treatments",[3]; [5],1 to 8 mg/L
same,"lethal concentrations of 2,4-D",[3]; [5],above 10 mg/L
Nc1c(Cl)c(F)nc(OCC(=O)O)c1Cl [Fluroxypyr],Relative Herbicide Tolerance,[4]; T0 event 1580[1]-004,High
same,Relative Herbicide Tolerance,[4]; T0 event 1580[1]-005,Variable
same,Relative Herbicide Tolerance,[4]; T0 event 1580[1]-008,Variable
same,Relative Herbicide Tolerance,[4]; T0 event 1580[1]-011,High
same,Relative Herbicide Tolerance,[4]; T0 event 1580[1]-015,High
same,Relative Herbicide Tolerance,[4]; T0 event 1580[1]-016,High
same,Relative Herbicide Tolerance,[4]; T0 event 1580[1]-017,High
same,Relative Herbicide Tolerance,[4]; T0 event 1580[1]-018,Variable
same,Relative Herbicide Tolerance,[4]; T0 event 1580[1]-019,Variable
same,Relative Herbicide Tolerance,[4]; T0 event 1580[1]-022,Variable
same,Relative Herbicide Tolerance,[4]; T0 event 1580[1]-023,Variable
same,Relative Herbicide Tolerance,[4]; T0 event 1580[1]-024,Variable
same,Relative Herbicide Tolerance,[4]; T0 event 1580[1]-026,Variable
same,Relative Herbicide Tolerance,[4]; T0 event 1580[1]-027,Low
same,Relative Herbicide Tolerance,[4]; T0 event 1580[1]-029,Variable
same,Relative Herbicide Tolerance,[4]; T0 event 1580[1]-030,High
same,Relative Herbicide Tolerance,[4]; T0 event 1580[1]-031,High
same,Relative Herbicide Tolerance,[4]; T0 event 1580[1]-032,High
O=C(O)COc1nc(Cl)c(Cl)cc1Cl [triclopyr],Rate relative to triclopyr,"AAD-12 (v2); 6.8 μg AAD-12 (v2), 1 mM substrate",1
same,Rate (mAU/min),"AAD-12 (v2); 6.8 μg AAD-12 (v2), 1 mM substrate, 325 nm, background rate 1.4 mAU/min subtracted",97 mAU/min
same,inhibition at 2000 µM,AAD-12 (v2); read-out: Substrate inhibition at 2 mM,0%
same,"rate of AAD-12 (v2) cleavage relative to that of 2,4-D",AAD-12 (v2); under maximal velocity conditions,~5%
same,substrate inhibition,AAD-12 (v2); up to 2 mM,No substrate inhibition
